In patent US8802711B2, “TRPV1 antagonists” (AbbVie Inc., priority 2011, dated 2014):
pIC50: −log10 of the molar value.

What was measured:
[1] = target: T1, human TRPV1 receptor (hTRPV1) (Homo sapiens (Human), UniProt Q8NER1); assay: Capsaicin activation assay (FLIPR intracellular Ca2+); type: cell-based; conditions: Table 1; inhibition of capsaicin-induced intracellular Ca2+ increase, HEK293 cells expressing human TRPV1; read-out: hTRPV1 cap IC50
Description: Dulbecco's modified Eagle medium (D-MEM) (with 4.5 mg/mL glucose) and fetal bovine serum were obtained from Hyclone Laboratories, Inc. (Logan, Utah). Dulbecco's phosphate-buffered saline (D-PBS) (with 1 mg/mL glucose and 3.6 mg/l Na pyruvate, without phenol red), L-glutamine, hygromycin B, and Lipofectamine® were obtained from Life Technologies (Grand Island, N.Y.). G418 sulfate was obtained from Calbiochem-Novabiochem Corp. (San Diego, Calif.). Capsaicin (8-methyl-N-vanillyl-6-nonenamide) was obtained from Sigma-Aldrich, Co. (St. Louis, Mo.). Fluo-4 AM (N-[4-[6-[(acetyloxy)methoxy]-2,7-difluoro-3-oxo-3H-xanthen-9-yl]-2-[2-[2-[bis[2-[(acetyloxy)methoxy]-2-oxyethyl]amino]-5-methyl phenoxy]ethoxy]phenyl]-N-[2-[(acetyloxy)methoxy]-2-oxyethyl]-glycine, (acetyloxy)methyl ester) was purchased from Molecular Probes (Eugene, Oreg.). […]
The functional activity of compounds at the TRPV1 receptor was determined by measurement of intracellular Ca^2+ levels ([Ca^2+]i) using the Fluorescence Imaging Plate Reader (FLIPR)^TETRA®. All compounds were tested over a 12-point one-third-log concentration range. Compound stocks, 10 mM, were prepared in DMSO, and diluted serially across a 384-well plate using a Bravo BenchCel workstation (Agilent Technologies, Santa Clara, Calif.). A stock concentration of capsaicin (10 mM) was made in DMSO, and diluted in D-PBS to a final concentration of 200 nM (4×). On the day prior to the experiment, recombinant HEK293 cells that stably express human TRPV1 were removed from tissue culture flasks and plated in growth medium into black-walled clear-bottom 384-well Biocoat™ poly-D-lysine assay plates (BD Biosciences, Bedford, Mass.) using a Multidrop® dispenser (ThermoScientific, Waltham, Mass.). On the day of the experiment, growth medium was removed, and the no-wash FLIPR® Calcium-4 dye (λEX=470-495 nm, λEM=515-575 nm; Molecular Devices, Sunnyvale, Calif.) was added to each well using the Multidrop® dispenser. Cells were incubated for 90-120 minutes in the dark at room temperature. Test compounds were added to the cells 3 minutes prior to the addition of 200 nM capsaicin (4×), and the final assay volume was 80 μL. Fluorescence readings were made at 1 to 5 second intervals over the course of the experimental run. The peak increase in relative fluorescence units (minus baseline) was calculated, and expressed as a percentage of the 50 nM capsaicin (control) response.

[2] = target: T1, human TRPV1 receptor (hTRPV1); assay: Acid activation assay (pH 5.0, FLIPR intracellular Ca2+); type: cell-based; conditions: Table 1, 37.5 μM antagonist, percentage of the maximal pH 5.0-induced response remaining; for remaining activity at 37.5 µM: read-out: hTRPV1 H+ (max % remain)
Description: Dulbecco's modified Eagle's medium (DMEM) with 4.5 mg/mL D-glucose, fetal bovine serum, L-glutamine, and 2-morpholinoethanesulfonic acid (MES) were purchased from Sigma-Aldrich Co. (St. Louis, Mo.). Dulbecco's phosphate-buffered saline (DPBS) with Ca^2+, Mg^2+, and 1 mg/mL D-glucose (pH 7.4), Geneticin®, 0.25% trypsin-1 mM EDTA, and penicillin-streptomycin were purchased from Invitrogen Corp. (Carlsbad, Calif.). The FLIPR® Calcium 4 assay kit was purchased from Molecular Devices (Sunnyvale, Calif.).
The cDNAs for the human TRPV1 receptor (hTRPV1) were isolated by reverse transcriptase-polymerase chain reaction (RT-PCR) from human small intestine poly A+RNA supplied by Clontech (Palo Alto, Calif.) using primers designed surrounding the initiation and termination codons identical to the published sequences (Hayes et al. Pain 2000, 88, 205-215). The resulting cDNA PCR products were subcloned into pCIneo mammalian expression vector (Promega) and fully sequenced using fluorescent dye-terminator reagents (Prism, Perkin-Elmer Applied Biosystems Division) and a Perkin-Elmer Applied Biosystems Model 373 DNA sequencer or Model 310 genetic analyzer. Expression plasmids encoding the hTRPV1 cDNA were transfected individually into 1321N1 human astrocytoma cells using Lipofectamine. Forty-eight hours after transfection, the neomycin-resistant cells were selected with growth medium containing 800 μg/mL Geneticin (Gibco BRL). Surviving individual colonies were isolated and screened for TRPV1 receptor activity. Cells expressing recombinant homomeric TRPV1 receptors were maintained at 37° C. in DMEM containing 4 mM L-glutamine, 300 μg/mL G418 (Cal-biochem) and 10% fetal bovine serum under a humidified 5% CO2 atmosphere.
The functional activity of compounds at the TRPV1 receptor was determined by measurement of intracellular Ca^2+ levels ([Ca^2+]i) using the Fluorescence Imaging Plate Reader (FLIPR)^TETRA®. All compounds were tested over a 12-point one-half-log concentration range. Compound stocks, 10 mM, were prepared in DMSO, and diluted serially across a 384-well plate using a Bravo BenchCel workstation (Agilent Technologies, Santa Clara, Calif.).
On the day of the experiment growth medium was removed, and the no-wash FLIPR® Calcium-4 dye (λEX=470-495 nm, λEM=515-575 nm) was added to each well using the Multidrop® dispenser. Cells were incubated for 90-120 minutes in the dark at 25° C. Test compounds were dissolved in DMSO, and plates were prepared using an Agilent Bravo workstation (Agilent Technologies Inc., Santa Clara, Calif.). Compounds were added to the cells 3 minutes prior to the addition of a pH 5.0 solution. Reagents were delivered at a rate of 40 μL/sec, and the final assay volume was 80 μL. Acidic pH solutions were prepared by titration of DPBS/MES with 1 N HCl. The intensity of the fluorescence was captured and digitally transferred to an interfaced PC.

T1 sequence (Q8NER1 whole entry): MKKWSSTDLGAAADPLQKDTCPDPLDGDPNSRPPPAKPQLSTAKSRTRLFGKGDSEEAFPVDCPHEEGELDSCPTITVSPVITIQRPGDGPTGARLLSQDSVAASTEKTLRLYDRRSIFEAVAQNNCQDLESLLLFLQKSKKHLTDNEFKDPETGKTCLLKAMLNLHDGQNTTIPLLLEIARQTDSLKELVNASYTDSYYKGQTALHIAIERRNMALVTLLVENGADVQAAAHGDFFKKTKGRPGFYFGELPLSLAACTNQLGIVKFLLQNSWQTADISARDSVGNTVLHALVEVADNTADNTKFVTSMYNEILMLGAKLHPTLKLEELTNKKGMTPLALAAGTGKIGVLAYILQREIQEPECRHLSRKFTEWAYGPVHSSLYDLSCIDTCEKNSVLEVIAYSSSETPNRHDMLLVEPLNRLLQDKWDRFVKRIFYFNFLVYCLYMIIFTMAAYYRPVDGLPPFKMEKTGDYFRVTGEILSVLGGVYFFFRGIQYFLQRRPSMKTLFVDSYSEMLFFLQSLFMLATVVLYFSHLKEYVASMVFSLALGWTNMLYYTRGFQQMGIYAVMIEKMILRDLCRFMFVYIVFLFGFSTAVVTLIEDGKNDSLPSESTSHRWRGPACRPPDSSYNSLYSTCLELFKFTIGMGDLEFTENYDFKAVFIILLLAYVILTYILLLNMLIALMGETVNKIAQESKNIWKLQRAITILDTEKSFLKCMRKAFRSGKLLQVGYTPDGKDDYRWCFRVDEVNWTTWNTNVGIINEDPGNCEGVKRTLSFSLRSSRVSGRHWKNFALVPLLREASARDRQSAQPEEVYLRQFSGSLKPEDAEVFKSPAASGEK

| Structure (SMILES) | pIC50 [1] | remaining activity at 37.5 µM [2] | hTRPV1 H+ (max % remain) [2] |
| --- | --- | --- | --- |
| O=C(Nc1cccc2[nH]ncc12)N[C@@H]1C[C@H](c2ccccc2)[C@@H]2[C@H]1C2(F)F [Example 54, 1-((1R,2R,4S,5R)-6,6-difluoro-4-phenylbicyclo[3.1.0]hex-2-yl)-3-(1H-indazol-4-yl)urea] | 5.87 | 69% | – |
| Cc1cc2c(NC(=O)N[C@@H]3CC[C@H](c4ccccc4F)C3)c(F)ccc2cn1 [Example 70, 1-(6-fluoro-3-methylisoquinolin-5-yl)-3-[(1R,3S)-3-(2-fluorophenyl)cyclopentyl]urea] | 8.25 | 22% | – |
| O=C(Nc1cccc2c1C[C@@H](O)CC2)N[C@@H]1CC[C@H](c2ccccc2)C1 [Compound C, 1-[(7S)-7-hydroxy-5,6,7,8-tetrahydronaphthalen-1-yl]-3-[(1R,3S)-3-phenylcyclopentyl]urea, reference compound] | 8.30 | 2% | – |
| O=C(Nc1cccc2c1C[C@H](O)C2)N[C@H]1CC[C@@H](c2ccccc2F)C1 [Example 93, 1-[(1S,3R)-3-(2-fluorophenyl)cyclopentyl]-3-[(2R)-2-hydroxy-2,3-dihydro-1H-inden-4-yl]urea] | 7.03 | 55% | – |
| Cn1ncc2c(NC(=O)N[C@@H]3CC[C@@H](c4cccc(F)c4)C3)cccc21 [Example 101, 1-[(1R,3R)-3-(3-fluorophenyl)cyclopentyl]-3-(1-methyl-420-1-21H-indazol-4-yl)urea] | 7.60 | – | 4% |
| O=C(Nc1cccc2c1C[C@H](O)CC2)N[C@H]1CC[C@H](c2ccccc2)C1 [Compound A, 1-[(7R)-7-hydroxy-5,6,7,8-tetrahydronaphthalen-1-yl]-3-[(1S,3S)-3-phenylcyclopentyl]urea, reference compound] | 8.40 | 2% | – |
| O=C(Nc1cccc2[nH]ncc12)N[C@@H]1CCC[C@H](c2ccccc2)C1 [Example 36, 1-(1H-indazol-4-yl)-3-[(1R,3S)-3-phenylcyclohexyl]urea] | 7.25 | 8% | – |
| CCc1cc2c(NC(=O)N[C@@H]3CC[C@H](c4ccccc4)C3)c(F)ccc2cn1 [Example 140, 1-(3-ethyl-6-fluoroisoquinolin-5-yl)-3-[(1R,3S)-3-phenylcyclopentyl]urea] | 5.02 | 90% | – |
| CN1C(=O)CCc2c(NC(=O)N[C@H]3CC[C@@H](c4cccc(F)c4)C3)cccc21 [Example 98, 1-[(1S,3R)-3-(3-fluorophenyl)cyclopentyl]-3-(1-methyl-2-oxo-1,2,3,4-tetrahydroquinolin-5-yl)urea] | 7.27 | 32% | – |
| O=C(Nc1cccc2c1C[C@@H](O)CC2)N[C@H]1CC[C@H](c2ccccc2)C1 [Compound D, 1-[(7S)-7-hydroxy-5,6,7,8-tetrahydronaphthalen-1-yl]-3-[(1S,3S)-3-phenylcyclopentyl]urea, reference compound] | 7.89 | 2% | – |
| O=C(Nc1cccc2c1C[C@H](O)C2)N[C@H]1C[C@@H](c2ccccc2)C1 [Example 60, 1-[(2R)-2-hydroxy-2,3-dihydro-1H-inden-4-yl]-3-(cis-3-phenylcyclobutyl)urea] | 6.48 | 72% | – |
| O=C(Nc1cccc2c1C[C@H](O)C2)N[C@@H]1CC[C@@H](c2ccccc2)C1 [Example 15, 1-[(2R)-2-hydroxy-2,3-dihydro-1H-inden-4-yl]-3-[(1R,3R)-3-phenylcyclopentyl]urea] | 6.75 | 20% | – |
| CN1C(=O)CCc2c(NC(=O)N[C@H]3CC[C@@H](c4ccccc4F)C3)cccc21 [Example 100, 1-[(1S,3R)-3-(2-fluorophenyl)cyclopentyl]-3-(1-methyl-2-oxo-1,2,3,4-tetrahydroquinolin-5-yl)urea] | 7.60 | 43% | – |
| O=C(Nc1cccc2[nH]ncc12)N[C@H]1CC[C@@H](C2CCCCC2)C1 [Example 49, 1-((1S,3R)-3-cyclohexylcyclopentyl)-3-(1H-indazol-4-yl)urea] | 7.18 | 68% | – |
| CC(C)Cc1cc2c(NC(=O)N[C@@H]3CC[C@H](c4ccccc4)C3)c(F)ccc2cn1 [Example 139, 1-[6-fluoro-3-(2-methylpropyl)isoquinolin-5-yl]-3-[(1R,3S)-3-phenylcyclopentyl]urea] | < 4.43 | 89% | – |
| O=C(Nc1ccc2c(c1)NC(=O)N(CCO)C2)N[C@H]1CC[C@H](c2ccccc2)C1 [Example 114, 1-[3-(2-hydroxyethyl)-2-oxo-1,2,3,4-tetrahydroquinazolin-7-yl]-3-[(1S,3S)-3-phenylcyclopentyl]urea] | 6.08 | 62% | – |
| Cc1cc2c(NC(=O)N[C@H]3CC[C@H](c4nc(C)cs4)C3)c(F)ccc2cn1 [Example 134, 1-(6-fluoro-3-methylisoquinolin-5-yl)-3-[(1S,3S)-3-(4-methyl-1,3-thiazol-2-yl)cyclopentyl]urea] | 6.81 | 36% | – |
| Cc1cc2c(NC(=O)N[C@@H]3CC[C@@H](c4ccccc4F)C3)c(F)ccc2cn1 [Example 82, 1-(6-fluoro-3-methylisoquinolin-5-yl)-3-[(1R,3R)-3-(2-fluorophenyl)cyclopentyl]urea] | 8.48 | 12% | – |
| CN1C(=O)CCc2ccc(NC(=O)N[C@@H]3CC[C@H](c4ccccc4)C3)cc21 [Example 77, 1-(1-methyl-2-oxo-1,2,3,4-tetrahydroquinolin-7-yl)-3-[(1R,3S)-3-phenylcyclopentyl]urea] | < 4.43 | 56% | – |
| O=C1CCc2ccc(NC(=O)N[C@@H]3CC[C@H](c4ccccc4)C3)cc2N1 [Example 5, 1-(2-oxo-1,2,3,4-tetrahydroquinolin-7-yl)-3-[(1R,3S)-3-phenylcyclopentyl]urea] | 7.15 | 81% | – |
| O=C(Nc1ccc2c(c1)NC(=O)N(CCO)C2)N[C@H]1CC[C@@H](c2cccc(F)c2)C1 [Example 116, 1-[(1S,3R)-3-(3-fluorophenyl)cyclopentyl]-3-[3-(2-hydroxyethyl)-2-oxo-1,2,3,4-tetrahydroquinazolin-7-yl]urea] | 6.03 | 48% | – |
